Test results reported in patent US20200038348A1, “METHODS AND MATERIALS FOR REDUCING SCAR FORMATION DURING WOUND HEALING” (Mayo Foundation for Medical Education and Research, priority 2017, published 2020).
Entries after “also recorded” stand apart in the source; their conditions may differ.

Columns and labels:
SPP1 promoter = assay: Dual-Glo luciferase reporter screen of SPP1 promoter activity (LOPAC library); format: cell-based
From the text: (A) Schematic representation of the DuoGlo construct used for high throughput compound screening. (B-C) SPP1 promoter activity after exposure of WM858 Dual-Glo cells to Vitamin D (B) or retinoid (C).
(§1) SPP1 is a pro-inflammatory inducer of skin fibrosis and skin aging. […] To screen for transcriptional silencers of SPP1 expression, cells with high endogenous SPP1 expression (e.g., melanoma cells) were identified. Then, the endogenous SPP1 promoter was tagged in melanoma cells with a dual luciferase reporter to create Dual-Glo cells using a genome editing approach. Firefly luciferase was introduced to assay SPP1 promoter activity; renilla luciferase was coupled to the CMV promoter as a loading control (FIG. 1A).

[1] = tested on: hypertrophic scar formation; assay: hypertrophic scar formation, ischemic rabbit ear model, topical treatment; format: in vivo
Procedure: Topical pentamidine was evaluated using a hypertrophic scar formation rabbit ear model. Briefly, surgical ligation of leporine auricular vessels induced an ischemic landscape for hypertrophic scar production. Specifically, a cranial artery and vein were ligated; the caudal artery and vein were preserved; and the central artery was ligated, while the central vein was preserved in the rabbit ear (FIG. 2).
All surgeries were conducted in a disinfected area designated for surgical procedures and equipped with necessary lighting and equipment. Briefly, rabbits received intramuscular buprenorphine and enrofloxicin (5-10 mg/kg) prior to the surgery. Anesthesia was induced by a mixture of ketamine and intramuscular xylazine and monitored by medical sciences support staff. Study staff performed surgeries using sterile instruments, drapes, gloves, and gown. Following vascular ligation, one linear full-thickness skin wound was created on the ventral side of each ear with a surgical blade. The skin and perichondrium were removed. The base on which granulation and epithelialization take place was the cartilage. The edges of the wound were closed with 4-0 Nylon sutures.
Following ischemic wounding, the relative ischemia created in the ear at time of surgery and time of sacrifice was assessed with a fluorescent light assisted angiography (Spy Elite, LifeCell). Perfusion of the ear was assessed using the Spy Elite system following intravenous administration of indocyanine green, which utilizes infrared light to detect the dye (FIG. 3).
Following vascular ligation and linear wounding, a sterile occlusive dressing (TegaDerm, 3M) was used to cover the wound site. Animals were allowed to recover for three days without wound disturbance. After 72 hours, the dressing was changed, and the treatment was initiated. […] Daily dressing changes occurred until day 28. About 1/8 teaspoon ([…]) of the treatment agent was applied with each dressing change. Rabbits were trained on the animal snuggler for ease during treatment application.
Animals were monitored daily for any signs of postoperative discomfort, wound infection, weight loss, loss of appetite, and loss of contracture fixation. Any complications such as cage sores, wound infections, weight loss, or wound dehiscence were reviewed with the veterinarian and managed in a way designed to minimize discomfort or suffering. […] Six rabbits were used in this study. For three rabbits, the left ear received Treatment Group 1 (n=3), and the right ear received Treatment Group 2 (n=3). […] One rabbit was excluded from the study due to wound infection:
(§2) Female New Zealand white rabbit ears were used. In total, twelve linear wounds were created using minimally invasive vascular ligation in auricular blood vessels to create ischemic hypertrophic scars. Following surgical ligation, linear wounds were treated with either osteopontin inhibitor 2% topical pentamidine (n=6; left ear) or base only (n=6; right ear) for four weeks. After the treatment period, samples were fixed in 10% formaldehyde, embedded in paraffin and stained for p16 expression.
Female New Zealand white rabbits ears were used. In total, twelve linear wounds were created using minimally invasive vascular ligation in auricular blood vessels to create ischemic hypertrophic scars. Following surgical ligation, linear wounds were treated with the following dose titration: 0.5% pentamidine (n=3); 1% pentamidine (n=3); 2% pentamidine (n=3); or 5% pentamidine (n=3). […]

WM858 Dual-Glo cells = assay: in vitro cell toxicity in the SPP1 screen; format: cell-based; conditions: in the SPP1 promoter screen
From the text: as §1

p16 = p16 expression staining in rabbit ear skin after topical treatment; format: in vivo; conditions: 2% topical pentamidine versus base only, four weeks, n=6 per group
Procedure: as §2

[2] = cited from earlier work

**Q.** For Vitamin D, which “effect on SPP1 promoter activity” value (SPP1 promoter; WM858 Dual-Glo cells) is on record?
**A.** activated

**Q.** For `N=C(N)c1ccc(OCCCCCOc2ccc(C(=N)N)cc2)cc1` [pentamidine, 4,4′-[pentane-1,5-diylbis(oxy)]dibenzenecarboximidamide], which hypertrophic scar formation ([1]; 0.5% pentamidine, n=3) is on record?
**A.** no response to minimal reduction

**Q.** And the hypertrophic scar formation ([1]; 1% pentamidine, n=3)?
**A.** no response to minimal reduction

**Q.** What about the hypertrophic scar formation ([1]; 2% pentamidine in Pracasil-Plus base, daily, four weeks) of the same compound?
**A.** Minimal hypertrophic scaring; also recorded: significantly inhibited hypertrophic scar formation; also recorded: observable scar reduction

**Q.** What about the “re-epithelization of the wound” value ([1]; 2% pentamidine, n=3) of the same compound?
**A.** Effective re-epithelization

**Q.** What about the “wound outcome at high dose” value ([1]; 5% pentamidine, n=3) of the same compound?
**A.** non-healing wound and abscess formation

**Q.** And the “inhibition of SPP1 promoter activity” value (SPP1 promoter; Dual-Glo melanoma cells, firefly luciferase at the SPP1 promoter, renilla/CMV as loading control)?
**A.** greater than 80%

**Q.** And the “in vitro cell toxicity” value (WM858 Dual-Glo cells)?
**A.** minimal in vitro cell toxicity

**Q.** What about the “p16 expression levels in dermal and epidermal regions” value (p16) of the same compound?
**A.** decreased p16 levels; also recorded: reduced p16 expression levels

**Q.** Which results are given for `N=C(N)c1ccc(OCCCCCOc2ccc(C(=N)N)cc2)cc1` [Pentamidine isethionate, 4,4-[1,5-pentanediylbis(oxy)]bis-benzenecarboximidamid]?
**A.** solubility in acetone ([2]; acetone): insoluble; solubility in alcohol ([2]; alcohol): soluble; solubility in chloroform ([2]; chloroform): insoluble; solubility in ether ([2]; ether): insoluble; solubility in glycerin ([2]; glycerin): soluble; solubility in water ([2]; water): soluble
